# Reference: ChEMBL document CHEMBL4354834 (J Med Chem, 2020)
# Columns and labels:
# [1] = Oral bioavailability in cynomolgus monkey at 1.52 mg/kg; format: ADME, organism-based, Macaca fascicularis; conditions: in vivo
# [2] = Oral bioavailability in dog at 0.62 mg/kg; format: ADME, organism-based, Canis lupus familiaris; conditions: in vivo
# [3] = AUC in rat at 1.10 mg/kg, po; format: ADME, organism-based; conditions: in vivo, 1.1 mg/kg
# [4] = AUC in cynomolgus monkey at 1.52 mg/kg, po; format: ADME, organism-based, Macaca fascicularis; conditions: in vivo
# [5] = Clearance in rat at 0.55 mg/kg, iv or 1.10 mg/kg, po; format: ADME, organism-based; conditions: in vivo
# [6] = Clearance in cynomolgus monkey at 0.71 mg/kg, iv or 1.52 mg/kg, po; format: ADME, organism-based, Macaca fascicularis; conditions: in vivo
# [7] = Half life in cynomolgus monkey at 0.71 mg/kg, iv or 1.52 mg/kg, po; format: ADME, organism-based, Macaca fascicularis; conditions: in vivo
# [8] = Half life in dog at 0.40 mg/kg, iv or 0.62 mg/kg, po; format: ADME, organism-based, Canis lupus familiaris; conditions: in vivo
# [9] = Protein binding in cynomolgus monkey; format: ADME, Macaca fascicularis; conditions: read-out: PB (converted)
# [10] = AUC in dog at 0.62 mg/kg, po; format: ADME, organism-based, Canis lupus familiaris; conditions: in vivo
# [11] = Half life in rat at 0.55 mg/kg, iv or 1.10 mg/kg, po; format: ADME, organism-based; conditions: in vivo
# [12] = Protein binding in rat; format: ADME; conditions: plasma, read-out: PB (converted)
# [13] = Protein binding in dog; format: ADME, Canis lupus familiaris; conditions: read-out: PB (converted)
# [14] = Clearance in dog at 0.40 mg/kg, iv or 0.62 mg/kg, po; format: ADME, organism-based, Canis lupus familiaris; conditions: in vivo, 0.4 mg/kg
# [15] = Volume of distribution at steady state in rat at 0.55 mg/kg, iv or 1.10 mg/kg, po; format: ADME, organism-based; conditions: in vivo, read-out: Vdss
# [16] = Volume of distribution at steady state in dog at 0.40 mg/kg, iv or 0.62 mg/kg, po; format: ADME, organism-based, Canis lupus familiaris; conditions: in vivo, 0.4 mg/kg, read-out: Vdss
# [17] = Volume of distribution at steady state in cynomolgus monkey at 0.71 mg/kg, iv or 1.52 mg/kg, po; format: ADME, organism-based, Macaca fascicularis; conditions: in vivo, read-out: Vdss
# [18] = Oral bioavailability in rat at 1.10 mg/kg; format: ADME, organism-based; conditions: in vivo, 1.1 mg/kg
# Prothrombin = Prothrombin (Homo sapiens, UniProt P00734); assay: Inhibition of human alpha-thrombin using pyro-Glu-Pro-Arg-pNA as substrate by spectrophotometry
# [19] = target: Urokinase-type plasminogen activator (Homo sapiens, UniProt P00749); assay: Inhibition of activated human urokinase using pyro-Glu-Gly-Arg-pNA as substrate by spectrophotometry
# Trypsin = Trypsin (Homo sapiens, UniProt P07477+P07478+P35030); assay: Inhibition of human trypsin using N-benzoyl-Ile-Glu-OH-OMe-Gly-Arg-pNA as substrate by spectrophotometry; format: protein assay
# [20] = Permeability of the compound across apical side to basolateral side in human Caco2 cells; format: ADME, cell-based; conditions: Caco-2, read-out: permeability
# [21] = Metabolic stability in cynomolgus monkey liver microsomes assessed as half life; format: ADME, Macaca fascicularis, Microsome
# Coagulation factor XII = target: T1, Coagulation factor XII (Homo sapiens, UniProt P00748); assay: Inhibition of activated human coagulation factor XII using H-(D)-CHT-Gly-Arg-pNA as substrate by spectrophotometry
# T1 sequence (P00748 whole entry): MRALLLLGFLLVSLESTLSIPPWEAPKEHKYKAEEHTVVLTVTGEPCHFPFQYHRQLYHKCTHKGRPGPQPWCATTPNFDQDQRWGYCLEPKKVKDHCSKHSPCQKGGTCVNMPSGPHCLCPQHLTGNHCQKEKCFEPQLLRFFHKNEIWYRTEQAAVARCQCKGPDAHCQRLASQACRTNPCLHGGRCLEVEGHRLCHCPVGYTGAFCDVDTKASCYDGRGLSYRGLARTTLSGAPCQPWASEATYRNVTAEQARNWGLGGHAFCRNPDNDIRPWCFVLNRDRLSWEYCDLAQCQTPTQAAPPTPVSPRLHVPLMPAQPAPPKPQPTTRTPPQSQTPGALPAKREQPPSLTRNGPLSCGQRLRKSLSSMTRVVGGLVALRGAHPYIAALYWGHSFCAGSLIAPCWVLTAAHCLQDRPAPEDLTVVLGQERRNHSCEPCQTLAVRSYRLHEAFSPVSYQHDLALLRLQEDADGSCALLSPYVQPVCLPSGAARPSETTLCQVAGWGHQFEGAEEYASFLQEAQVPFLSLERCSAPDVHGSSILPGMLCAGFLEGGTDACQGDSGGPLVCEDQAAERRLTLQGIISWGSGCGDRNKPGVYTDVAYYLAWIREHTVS
# Coagulation factor VII = target: T2, Coagulation factor VII (Homo sapiens, UniProt P08709); assay: Inhibition of activated human coagulation factor VII using H-(D)-Ile-Pro-Arg-pNA as substrate by spectrophotometry
# T2 sequence (P08709 whole entry): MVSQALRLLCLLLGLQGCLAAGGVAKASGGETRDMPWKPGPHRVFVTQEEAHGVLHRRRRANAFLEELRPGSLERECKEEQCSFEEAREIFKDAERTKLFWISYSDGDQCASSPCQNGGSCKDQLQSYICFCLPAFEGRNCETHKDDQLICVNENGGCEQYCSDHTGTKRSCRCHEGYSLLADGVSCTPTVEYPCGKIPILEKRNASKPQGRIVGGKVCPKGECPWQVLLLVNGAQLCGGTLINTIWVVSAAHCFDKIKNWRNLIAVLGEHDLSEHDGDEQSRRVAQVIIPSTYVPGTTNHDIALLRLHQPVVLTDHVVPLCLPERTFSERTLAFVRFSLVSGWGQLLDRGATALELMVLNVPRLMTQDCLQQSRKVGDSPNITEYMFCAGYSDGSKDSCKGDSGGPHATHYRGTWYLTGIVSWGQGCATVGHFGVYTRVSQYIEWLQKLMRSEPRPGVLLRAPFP
# [22] = Metabolic stability in human liver microsomes assessed as half life; format: ADME, Microsome
# Coagulation factor X = Coagulation factor X (Homo sapiens, UniProt P00742); assay: Inhibition of activated human coagulation factor X using N-benzoyl-Ile-Glu-OH-OMe-Gly-Arg-pNA as substrate by spectrophotometry
# [23] = Metabolic stability in rat liver microsomes assessed as half life; format: ADME, Microsome
# Plasminogen = Plasminogen (Homo sapiens, UniProt P00747); assay: Inhibition of human plasmin using H-(D)-Val-Leu-Lys-pNA as substrate by spectrophotometry
# [24] = Metabolic stability in dog liver microsomes assessed as half life; format: ADME, Canis lupus familiaris, Microsome
# Coagulation factor IX = Coagulation factor IX (Homo sapiens, UniProt P00740); assay: Inhibition of activated human coagulation factor IX using 7-amino-4-methylcoumarin as substrate by spectrofluorimetry
# [25] = Permeability of the compound across basolateral side to apical side in human Caco2 cells; format: ADME, cell-based; conditions: Caco-2, read-out: permeability
# Plasma kallikrein = Plasma kallikrein (Homo sapiens, UniProt P03952); assay: Inhibition of human kallikrein using H-(D)-Pro-Phe-Arg-pNA as substrate by spectrophotometry
# [26] = target: Vitamin K-dependent protein C (Homo sapiens, UniProt P04070); assay: Inhibition of activated human protein C using pyro-Glu-Pro-Arg-pNA as substrate by spectrophotometry
# [27] = AUC in cynomolgus monkey at 1.58 mg/kg, po; format: ADME, organism-based, Macaca fascicularis; conditions: in vivo
# [28] = Volume of distribution at steady state in rat at 0.70 mg/kg, iv or 1.40 mg/kg, po; format: ADME, organism-based; conditions: in vivo, 0.7 mg/kg, read-out: Vdss
# [29] = Clearance in rat at 0.70 mg/kg, iv or 1.40 mg/kg, po; format: ADME, organism-based; conditions: in vivo, 0.7 mg/kg
# [30] = Half life in dog at 0.80 mg/kg, iv; format: ADME, organism-based, Canis lupus familiaris; conditions: in vivo, 0.8 mg/kg
# [31] = Clearance in cynomolgus monkey at 0.80 mg/kg, iv or 1.58 mg/kg, po; format: ADME, organism-based, Macaca fascicularis; conditions: in vivo, 0.8 mg/kg
# [32] = Oral bioavailability in rat at 1.40 mg/kg; format: ADME, organism-based; conditions: in vivo, 1.4 mg/kg
# [33] = Half life in cynomolgus monkey at 0.80 mg/kg, iv or 1.58 mg/kg, po; format: ADME, organism-based, Macaca fascicularis; conditions: in vivo
# [34] = Clearance in dog at 0.80 mg/kg, iv; format: ADME, organism-based, Canis lupus familiaris; conditions: in vivo, 0.8 mg/kg
# [35] = Volume of distribution at steady state in dog at 0.80 mg/kg, iv; format: ADME, organism-based, Canis lupus familiaris; conditions: in vivo, 0.8 mg/kg, read-out: Vdss
# [36] = Oral bioavailability in cynomolgus monkey at 1.58 mg/kg; format: ADME, organism-based, Macaca fascicularis; conditions: in vivo
# [37] = Volume of distribution at steady state in cynomolgus monkey at 0.80 mg/kg, iv or 1.58 mg/kg, po; format: ADME, organism-based, Macaca fascicularis; conditions: in vivo, 0.8 mg/kg, read-out: Vdss
# [38] = AUC in rat at 1.40 mg/kg, po; format: ADME, organism-based; conditions: in vivo, 1.4 mg/kg
# [39] = Half life in rat at 0.70 mg/kg, iv or 1.40 mg/kg, po; format: ADME, organism-based; conditions: in vivo
# Sequence of Plasminogen (P00747 97-580 limits assumed): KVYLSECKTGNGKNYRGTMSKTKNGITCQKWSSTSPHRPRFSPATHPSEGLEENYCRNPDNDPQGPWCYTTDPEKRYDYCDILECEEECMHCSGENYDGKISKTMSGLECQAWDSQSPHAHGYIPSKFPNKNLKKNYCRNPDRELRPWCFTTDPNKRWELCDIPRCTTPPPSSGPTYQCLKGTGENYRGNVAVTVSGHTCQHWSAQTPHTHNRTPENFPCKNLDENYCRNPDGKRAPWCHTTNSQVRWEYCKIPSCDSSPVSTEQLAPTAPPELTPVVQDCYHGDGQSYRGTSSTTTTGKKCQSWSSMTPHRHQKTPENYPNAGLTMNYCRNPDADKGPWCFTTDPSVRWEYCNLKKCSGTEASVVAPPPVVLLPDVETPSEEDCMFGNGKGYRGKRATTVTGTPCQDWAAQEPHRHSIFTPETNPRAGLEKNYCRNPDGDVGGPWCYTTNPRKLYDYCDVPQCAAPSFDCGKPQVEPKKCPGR
# Sequence of Plasminogen (P00747 581-810 limits assumed): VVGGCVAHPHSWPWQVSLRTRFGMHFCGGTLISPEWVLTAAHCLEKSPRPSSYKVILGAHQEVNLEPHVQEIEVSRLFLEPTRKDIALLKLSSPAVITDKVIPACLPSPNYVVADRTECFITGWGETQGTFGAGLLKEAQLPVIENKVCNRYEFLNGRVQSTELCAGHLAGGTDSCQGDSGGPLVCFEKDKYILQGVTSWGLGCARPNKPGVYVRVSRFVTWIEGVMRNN
# Sequence of Coagulation factor X (P00742 41-179 limits assumed): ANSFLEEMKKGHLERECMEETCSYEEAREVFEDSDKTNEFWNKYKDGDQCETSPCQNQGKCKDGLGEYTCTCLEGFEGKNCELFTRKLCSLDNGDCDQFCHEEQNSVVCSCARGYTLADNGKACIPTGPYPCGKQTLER
# Sequence of Coagulation factor X (P00742 235-488 limits assumed): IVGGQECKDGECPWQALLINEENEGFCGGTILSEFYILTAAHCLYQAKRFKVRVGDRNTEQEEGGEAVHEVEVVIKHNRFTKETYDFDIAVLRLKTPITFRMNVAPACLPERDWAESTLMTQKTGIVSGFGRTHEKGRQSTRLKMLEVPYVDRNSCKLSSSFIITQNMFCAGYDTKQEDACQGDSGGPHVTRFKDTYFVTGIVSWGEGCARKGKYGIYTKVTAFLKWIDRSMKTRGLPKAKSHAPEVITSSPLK
# Sequence of Plasma kallikrein (P03952 20-390 limits assumed): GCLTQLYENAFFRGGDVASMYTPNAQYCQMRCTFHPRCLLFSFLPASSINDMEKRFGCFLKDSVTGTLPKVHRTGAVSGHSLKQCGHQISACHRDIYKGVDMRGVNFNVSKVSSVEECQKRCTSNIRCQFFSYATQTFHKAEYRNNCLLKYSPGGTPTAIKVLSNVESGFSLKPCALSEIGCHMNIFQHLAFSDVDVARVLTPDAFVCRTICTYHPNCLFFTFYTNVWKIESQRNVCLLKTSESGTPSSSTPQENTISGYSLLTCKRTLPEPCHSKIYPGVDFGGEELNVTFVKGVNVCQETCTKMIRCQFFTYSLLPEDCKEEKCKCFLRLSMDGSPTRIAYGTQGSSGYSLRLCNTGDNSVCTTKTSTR
# Sequence of Plasma kallikrein (P03952 391-638 limits assumed): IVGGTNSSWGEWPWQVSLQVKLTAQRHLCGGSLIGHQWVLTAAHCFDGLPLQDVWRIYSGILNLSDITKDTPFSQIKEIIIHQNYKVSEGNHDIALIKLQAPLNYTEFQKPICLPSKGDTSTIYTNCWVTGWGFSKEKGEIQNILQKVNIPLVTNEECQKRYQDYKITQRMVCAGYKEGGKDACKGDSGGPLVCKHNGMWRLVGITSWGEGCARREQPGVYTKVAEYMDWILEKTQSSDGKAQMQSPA
# Sequence of Coagulation factor IX (P00740 47-191 limits assumed): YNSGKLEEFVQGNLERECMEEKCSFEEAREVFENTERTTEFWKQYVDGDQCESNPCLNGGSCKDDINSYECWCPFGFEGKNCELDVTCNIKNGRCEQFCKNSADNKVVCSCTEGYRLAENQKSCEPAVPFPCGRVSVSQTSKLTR
# Sequence of Coagulation factor IX (P00740 227-461 limits assumed): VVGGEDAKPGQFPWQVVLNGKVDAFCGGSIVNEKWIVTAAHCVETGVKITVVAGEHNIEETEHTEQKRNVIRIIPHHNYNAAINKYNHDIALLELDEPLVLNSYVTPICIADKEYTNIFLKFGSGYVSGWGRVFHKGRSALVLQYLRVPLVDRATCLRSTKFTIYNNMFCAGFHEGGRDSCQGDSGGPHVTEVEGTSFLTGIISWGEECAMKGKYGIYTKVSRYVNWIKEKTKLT
# Sequence of Vitamin K-dependent protein C (P04070 43-197 limits assumed): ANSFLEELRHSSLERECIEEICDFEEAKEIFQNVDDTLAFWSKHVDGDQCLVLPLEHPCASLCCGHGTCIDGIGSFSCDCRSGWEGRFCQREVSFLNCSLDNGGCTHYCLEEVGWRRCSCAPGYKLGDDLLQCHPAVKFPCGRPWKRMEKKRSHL
# Sequence of Vitamin K-dependent protein C (P04070 212-461 limits assumed): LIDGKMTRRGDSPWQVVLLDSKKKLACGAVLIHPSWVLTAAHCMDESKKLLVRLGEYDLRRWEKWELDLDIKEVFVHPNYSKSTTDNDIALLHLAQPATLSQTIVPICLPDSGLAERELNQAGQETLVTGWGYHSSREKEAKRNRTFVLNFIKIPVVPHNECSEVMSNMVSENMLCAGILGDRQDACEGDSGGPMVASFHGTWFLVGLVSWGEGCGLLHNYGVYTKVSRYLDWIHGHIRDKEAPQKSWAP
structure (smiles),measurement,setting,value
COC(=O)Nc1ccc2c(c1)NC(=O)[C@H](C)CCC[C@H](NC(=O)c1nnn(-c3cccc(Cl)c3F)c1C)c1cc-2ccn1.O=C(O)C(F)(F)F,bioavailability,[1],15%
same,bioavailability,[2],34%
same,AUC,[3],0.213 to 1.15 µM·h
same,AUC,[4],0.584 µM·h
same,clearance,[5],9 to 21 mL/min/kg
same,clearance,[6],9.9 mL/min/kg
same,half-life,[7],4 h
same,half-life,[8],4.8 h
same,fraction unbound,[9],0.055
same,AUC,[10],0.922 µM·h
same,half-life,[11],2.2 to 4.2 h
same,fraction unbound,[12],0.052
same,fraction unbound,[13],0.038
same,clearance,[14],5.4 mL/min/kg
same,Vd,[15],2.1 to 3.5 L/kg
same,Vd,[16],2.4 L/kg
same,Vd,[17],2.9 L/kg
same,bioavailability,[18],13 to 42%
COC(=O)Nc1ccc2c(c1)NC(=O)[C@H](C)CCC[C@H](NC(=O)c1ncn(-c3cccc(Cl)c3F)c1C)c1cc-2ccn1.Cl.Cl,Ki,Prothrombin,> 11.5 µM
same,Ki,[19],> 15.1 µM
same,Ki,Trypsin,> 10 µM
same,Papp A→B,[20],< 1.5 ×10⁻⁶ cm/s
same,half-life,[21],0.8 h
same,Ki,Coagulation factor XII,2.53 µM
same,Ki,Coagulation factor VII,> 13.3 µM
same,half-life,[22],0.917 h
same,Ki,Coagulation factor X,> 13.3 µM
same,half-life,[23],1.13 h
same,Ki,Plasminogen,> 15 µM
same,half-life,[24],1.22 h
same,Ki,Coagulation factor IX,> 27.1 µM
same,Papp B→A,[25],36.7 ×10⁻⁶ cm/s
same,Ki,Plasma kallikrein,0.0063 µM
same,Ki,[26],> 21.5 µM
COC(=O)Nc1ccc2c(c1)NC(=O)[C@H](C)CCC[C@H](NC(=O)c1ncn(-c3cccc(Cl)c3F)c1C)c1cc-2ccn1.O=C(O)C(F)(F)F.O=C(O)C(F)(F)F,AUC,[27],0.509 µM·h
same,Vd,[28],0.5 to 2 L/kg
same,clearance,[29],6 to 29 mL/min/kg
same,half-life,[30],5 h
same,clearance,[31],14.5 mL/min/kg
same,bioavailability,[32],7 to 25%
same,half-life,[33],3.7 h
same,fraction unbound,[9],0.042
same,clearance,[34],15.6 mL/min/kg
same,fraction unbound,[12],0.026
same,fraction unbound,[13],0.043
same,Vd,[35],6 L/kg
same,bioavailability,[36],19%
same,Vd,[37],3.2 L/kg
same,AUC,[38],0.068 to 1.23 µM·h
same,half-life,[39],1 to 1.4 h
